Columns and labels:
[1] = tested on: pathological choroidal neovascularization; parameters: method as in PMID 30208056; conditions: mouse model; cited from earlier work
[2] = molecular target: T1, APLNR (Homo sapiens, UniProt P35414); parameters: expressed in transfected cells; host or cells: HEK293; conditions: cited from earlier work
T1 sequence (P35414 1-380): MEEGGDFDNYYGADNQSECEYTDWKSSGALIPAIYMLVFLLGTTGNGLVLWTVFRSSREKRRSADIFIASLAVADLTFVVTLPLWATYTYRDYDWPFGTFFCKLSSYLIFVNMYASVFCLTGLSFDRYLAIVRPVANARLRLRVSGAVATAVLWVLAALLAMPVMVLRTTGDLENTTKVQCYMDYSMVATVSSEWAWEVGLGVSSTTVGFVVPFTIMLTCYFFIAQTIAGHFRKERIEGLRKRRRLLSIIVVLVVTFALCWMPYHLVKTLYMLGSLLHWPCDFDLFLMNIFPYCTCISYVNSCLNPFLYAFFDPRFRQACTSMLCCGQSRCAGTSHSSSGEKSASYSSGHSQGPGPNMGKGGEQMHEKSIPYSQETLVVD

[3] = tested on: zebrafish embryos; assay: Zebrafish embryo toxicity; type: in vivo, zebrafish (Danio rerio); conditions: embryos exposed 12 to 48 hpf, survival
Experimental: Transgenic zebrafish Tg(flk: EGFP) were obtained from the China Zebrafish Resource Center and maintained at 28 ± 1 °C under a 14-hour light/10-hour dark cycle. […] Survival rates were recorded to calculate the median lethal concentration (LC₅₀). For the retinal angiogenesis assay, embryos at 1 day post fertilization (dpf) were transferred to E3 medium containing 5 mM CoCl₂·6 H₂O and 2.5 µg/mL GS4012 to induce hypoxia and abnormal vessel formation. At 3 dpf, test compounds were added and incubation continued until 5 dpf. Blank, model, and vehicle (≤ 0.1% DMSO) controls were included, with at least three replicates per group (n = 10–15 embryos). At 5 dpf, retinal vasculature was imaged using fluorescence microscopy and analyzed for branching number, vessel length, and density using ImageJ. Data are presented as mean ± standard deviation (SD) and analyzed using one-way ANOVA followed by Tukey’s post hoc test, with p < 0.05 considered statistically significant.
The zebrafish (Danio rerio) model was employed due to its distinct advantages, the optical transparency, which enable in vivo vascular visualization. […] Firstly, the 8 candidate compounds underwent preliminary toxicity evaluation in zebrafish embryos. […] At 48 hpf, the number of surviving embryos was quantified, and the lethal dose 50 (LD50) for each compound was determined based on the survival data. […]

[4] = tested on: STING signaling pathway in HUVEC; assay: Western blot of STING pathway proteins; type: cell-based, human; conditions: NAC 5 mM pretreatment 2 h + candesartan 15 µM 48 h
Experimental: (§1) Total protein was extracted using RIPA lysis buffer (Solarbio, China) supplemented with phenylmethylsulfonyl fluoride (PMSF; Thermo Fisher Scientific, USA), protease inhibitor cocktail (Roche, Switzerland), and phosphatase inhibitor cocktail (Roche, Switzerland). Protein concentration was determined using a BCA protein assay kit (Thermo Fisher Scientific, USA). Equal amounts of protein were separated by 10% SDS-polyacrylamide gel electrophoresis (SDS-PAGE) and transferred onto nitrocellulose (NC) membranes. […] All primary antibodies were purchased from Cell Signaling Technology (CST, USA), except for GAPDH, which was obtained from Proteintech (Wuhan, China). After washing, the membranes were incubated with HRP-conjugated goat anti-rabbit or anti-mouse IgG secondary antibodies (Biosharp, China) for 1 h at room temperature. Protein bands were visualized using an enhanced chemiluminescence (ECL) detection system and scanned using a chemiluminescence imaging system.

[5] = tested on: HUVEC; assay: DNA damage: γ-H2AX western blot and alkaline comet assay; type: cell-based, human
Experimental: as §1

[6] = tested on: HUVEC; assay: Wound healing and Transwell assays; type: cell-based, human; conditions: candesartan 15, 7.5, 3.75 µM; sunitinib 2 µM; 48 h
Experimental: HUVEC cells were digested and inoculated into 6-well plates, with 1 × 10^5 cells added to each hole. On the second day, the gun head was drawn vertically along the edge of the upper lid of the hole plate. The cells were washed twice with PBS, the scratched cells were removed, and the serum free medium containing drugs was added. The photos were taken and recorded under the microscope for 0 h and cultured in a 5% CO2 incubator at 37℃. After 48 h, the sample was taken and photographed for recording. The cell scratch area was calculated with Image J software.
Migration assays were performed using the Transwell cell culture insert. HUVEC (3 × 10^4 cells) were suspended with 100µL serum-free medium containing different concentrations of compounds and placed in the upper layer of the Transwell cell culture insert, and 300µL medium containing 10% FBS was placed below the cell-permeable membrane. Following an incubation (48 h), the cells that had migrated through the membrane were stained with 0.2% crystal violet for 30 min and count.

[7] = tested on: FAK-MMP9 signaling in HUVEC; assay: Western blot of FAK and MMP-9; type: cell-based, human
Experimental: as §1

[8] = tested on: HUVEC; assay: Tube formation assay; type: cell-based, human; conditions: candesartan 15, 7.5, 3.75 µM; sunitinib 2 µM
Experimental: The 96-well plate was coated with 50 µl matrix glue per well, and then HUVEC was inoculated into the 96-well plate coated with matrix glue with a density of 4 × 10^4 cells per well. Photos were taken with an optical microscope (Nikon, China) after culture at 37℃ and 5% CO2 for 6–8 h, and the length of the generated blood vessels was analyzed using ImageJ.

In the case of `CCN(CC)Cc1cc(Nc2ccnc3cc(Cl)ccc23)ccc1O` [Amodiaquine], the Pathological choroidal neovascularization [1] is given as “reduces pathological choroidal neovascularization” and the “Inhibition of APLN/APLNR signaling” value [2] is given as “inhibits APLN/APLNR signaling in a concentration-dependent manner”.
In the case of `CSCC[C@H](NC(=O)[C@@H]1CCCN1C(=O)CNC(=O)[C@H](CCCCN)NC(=O)[C@H](Cc1c[nH]cn1)NC(=O)[C@H](CO)NC(=O)[C@H](CC(C)C)NC(=O)[C@H](CCCNC(=N)N)NC(=O)[C@@H]1CCCN1C(=O)[C@H](CCCNC(=N)N)NC(=O)[C@@H](N)CCC(N)=O)C(=O)N1CCC[C@H]1C(=O)N[C@@H](C)C(=O)O` [Compound F13A], the “LD50(µM,48 h)” value [3] is reported as 2.85 ± 0.31 µM.
For `CC(=O)N[C@@H](CS)C(=O)O` [NAC, N-acetylcysteine], the “Effect on candesartan-induced STING pathway upregulation” value [4] was “attenuated candesartan-induced upregulation of STING pathway components”, the “Effect on candesartan-induced γ-H2AX expression” value ([5]; NAC 5 mM + candesartan 15 µM) was “significantly reduced γ-H2AX expression” and the “Effect on candesartan-induced DNA damage (comet assay)” value ([5]; NAC 5 mM pre-treatment + candesartan 15 µM) was “effectively mitigate candesartan-induced DNA damage”.
For `CCN(CC)CCNC(=O)c1c(C)[nH]c(/C=C2\C(=O)Nc3ccc(F)cc32)c1C` [Sunitinib], the “Migratory and invasive capacities of HUVECs” value [6] was “significantly reduced the migratory and invasive capacities of HUVECs”, the “Expression of MMP9 and FAK” value [7] was “significantly decreased the expression of MMP9 and FAK” and the “Tube formation: mean mesh size and total mesh area” value [8] was “increase the mean mesh and the total meshe area”. For the same molecule, the “Tube formation: number of junctions, total segment length, number of meshes” value [8] was “significantly reduced the number of junctions, total segment length, and the number of meshes”.

Source: article PMC12763877 (Journal of Experimental & Clinical Cancer Research : CR, 2025)
